Assay results: ChEMBL document CHEMBL1201862, “PubChem BioAssay data set” (2004)
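A five-concentration, 48-hour dose response in 96-well plates underlies each endpoint, interpolated linearly between surrounding concentrations. GI50: concentration for 50% inhibition of growth.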 Active and inactive are the calls of the source. No stated cut-off is given here; in the data, active = GI50 up to about 1.1 µM and inactive = higher.

Key:
Test in all cases: inhibition of tumour cell growth, NCI panel, 48 h
ACHN = tested on: ACHN
HCC 2998 = tested on: HCC 2998
BT-549 = tested on: BT-549
MDA-N = tested on: MDA-N
COLO 205 = tested on: COLO 205
PC-3 = tested on: PC-3
UACC-62 = tested on: UACC-62
NCI-H522 = tested on: NCI-H522
786-0 = tested on: 786-0
Hs-578T = tested on: Hs-578T
U-251 = tested on: U-251
SR = tested on: SR
IGROV-1 = tested on: IGROV-1
T47D = tested on: T47D
OVCAR-5 = tested on: OVCAR-5
A498 = tested on: A498

Measured: GI50

O=[N+]([O-])c1ccc(-c2nc3cc([N+](=O)[O-])ccc3[nH]2)cc1
inactive: ACHN 31 µM | HCC 2998 50.2 µM | BT-549 31.2 µM | MDA-N 33.2 µM | COLO 205 14.3 µM | PC-3 16.4 µM | UACC-62 37 µM | NCI-H522 11.4 µM | 786-0 32.1 µM | Hs-578T 40.5 µM | U-251 25.4 µM | SR 29 µM | IGROV-1 30.5 µM | T47D 15.5 µM

COC(=O)[C@@H]1O[C@]12[C@@H](CO[Si](C)(C)C(C)(C)C)O[C@@H](n1cc(C)c(=O)[nH]c1=O)[C@@H]2O[Si](C)(C)C(C)(C)C
inactive: ACHN 16.6 µM | OVCAR-5 20.4 µM | BT-549 15.9 µM | MDA-N 12.9 µM | COLO 205 28.4 µM | PC-3 20.4 µM | UACC-62 17.9 µM | NCI-H522 11.9 µM | Hs-578T 19.1 µM | U-251 12.3 µM | IGROV-1 5.64 µM | T47D 6.31 µM

Cc1cc(C)c(S(=O)(=O)N(CCCCN)OCCCN)c(C)c1
inactive: ACHN 22.5 µM | OVCAR-5 19.5 µM | HCC 2998 2.28 µM | BT-549 19.1 µM | MDA-N 16.4 µM | COLO 205 9.04 µM | PC-3 13.3 µM | UACC-62 16.4 µM | NCI-H522 16.2 µM | Hs-578T 16 µM | U-251 15.4 µM | SR 9.59 µM | IGROV-1 13.6 µM | T47D 18.2 µM

CCOC(=O)CCSS(=O)(=O)C(F)(F)F
inactive: ACHN > 100 µM | OVCAR-5 > 100 µM | HCC 2998 > 100 µM | BT-549 > 100 µM | MDA-N > 100 µM | COLO 205 > 100 µM | PC-3 > 100 µM | UACC-62 > 100 µM | A498 > 100 µM | 786-0 > 100 µM | U-251 > 100 µM | IGROV-1 > 100 µM | T47D > 100 µM

CC1(O)OC(=O)C2=C1CCC1C2CCC2(C)C(O)CCC12 (centres undefined)
inactive: ACHN > 100 µM | OVCAR-5 > 100 µM | HCC 2998 > 100 µM | BT-549 > 100 µM | MDA-N > 100 µM | UACC-62 46.3 µM | NCI-H522 > 100 µM | A498 > 100 µM | 786-0 > 100 µM | Hs-578T > 100 µM | U-251 > 100 µM | SR > 100 µM | IGROV-1 > 100 µM | T47D > 100 µM

Cc1cc(NC(=S)SCc2ccc(F)cc2)c([N+](=O)[O-])cc1C
inactive: ACHN 32.4 µM | OVCAR-5 21.6 µM | BT-549 28.2 µM | COLO 205 19.3 µM | PC-3 42.2 µM | UACC-62 15 µM | 786-0 33.3 µM | Hs-578T 13.4 µM | U-251 22.4 µM | SR 20.3 µM | T47D 48.8 µM

C=C(C)C(=O)[C@@]12C(=O)[C@@H](C)CC[C@H]1[C@H](C)C[C@@H]2C=C(C)C
inactive: ACHN 12.9 µM | OVCAR-5 28.4 µM | HCC 2998 14.8 µM | MDA-N 24.1 µM | COLO 205 18.8 µM | PC-3 24 µM | UACC-62 22.9 µM | NCI-H522 14.6 µM | A498 52.4 µM | 786-0 20.1 µM | U-251 23.6 µM | SR > 10 µM | IGROV-1 27.5 µM

CC(=O)OCC1OC(N2C(=O)NC(=O)C3C=C4CCCCC4=CC32)C(OC(C)=O)C1OC(C)=O (centres undefined)
inactive: ACHN > 100 µM | OVCAR-5 > 100 µM | HCC 2998 > 100 µM | BT-549 > 100 µM | MDA-N > 100 µM | COLO 205 > 100 µM | PC-3 > 100 µM | UACC-62 > 100 µM | NCI-H522 > 100 µM | A498 > 100 µM | U-251 > 100 µM | SR > 100 µM | IGROV-1 > 100 µM | T47D > 100 µM

O=C1CC(=O)c2c(O)cc(O)c(c2O)-c2c(ccc(O)c2O)C2=CC(=O)c3c(O)cc(O)c(c3O2)-c2c1ccc(O)c2O.O=C1CC2(O)Oc3c1c(O)cc(O)c3-c1c(ccc(O)c1O)-c1cc(=O)c3c(O)cc(O)c(c3o1)-c1c2ccc(O)c1O
inactive: OVCAR-5 > 50 µM | HCC 2998 > 50 µM | BT-549 > 50 µM | MDA-N > 50 µM | COLO 205 > 50 µM | PC-3 > 50 µM | UACC-62 > 50 µM | A498 > 50 µM | Hs-578T > 50 µM | U-251 > 50 µM | SR > 50 µM | IGROV-1 > 50 µM | T47D > 50 µM

Clc1ccc(C(SCc2ccccc2)SCc2ccccc2)cc1
inactive: ACHN > 10 µM | HCC 2998 > 10 µM | MDA-N > 10 µM | COLO 205 > 10 µM | PC-3 > 10 µM | UACC-62 > 10 µM | NCI-H522 > 10 µM | A498 > 10 µM | 786-0 > 10 µM | Hs-578T > 10 µM | U-251 > 10 µM | SR > 10 µM | IGROV-1 > 10 µM | T47D > 10 µM

c1ccc(C(NC2=NCCO2)C2CC2)cc1 (centres undefined)
inactive: ACHN > 100 µM | OVCAR-5 > 100 µM | HCC 2998 > 100 µM | MDA-N > 100 µM | COLO 205 > 100 µM | PC-3 > 100 µM | UACC-62 > 100 µM | NCI-H522 > 100 µM | A498 93.1 µM | 786-0 > 100 µM | Hs-578T > 100 µM | U-251 > 100 µM | SR > 100 µM | IGROV-1 > 100 µM | T47D > 100 µM

Cc1nc2c(sc(=S)n2-c2ccccc2)c(=O)[nH]1
inactive: ACHN > 100 µM | OVCAR-5 > 100 µM | HCC 2998 > 100 µM | COLO 205 > 100 µM | UACC-62 > 100 µM | NCI-H522 > 100 µM | A498 > 100 µM | U-251 > 100 µM | SR > 100 µM | IGROV-1 > 100 µM

Oc1ccc(-c2nc3cc(C(F)(F)F)ccc3s2)cc1
inactive: ACHN 14.5 µM | OVCAR-5 17.2 µM | BT-549 15.1 µM | MDA-N 17.7 µM | COLO 205 18.8 µM | PC-3 14.5 µM | UACC-62 13.9 µM | NCI-H522 12.6 µM | A498 18.2 µM | U-251 16.1 µM | SR 15.8 µM | IGROV-1 11.2 µM

O=c1c(-c2ccc(O)cc2)coc2cc(O)cc(O)c12 [GENISTEIN]
inactive: ACHN 29.7 µM | OVCAR-5 > 100 µM | HCC 2998 > 100 µM | BT-549 88.3 µM | MDA-N > 100 µM | COLO 205 > 100 µM | PC-3 > 100 µM | UACC-62 > 100 µM | NCI-H522 36.4 µM | 786-0 43.2 µM | Hs-578T 65.2 µM | U-251 > 100 µM | SR 56.8 µM | IGROV-1 71.6 µM | T47D > 100 µM
